The source of these data is publication PMC10313070, “Design, in silico and pharmacological evaluation of a peptide inhibitor of BACE-1” (Frontiers in Pharmacology, 2023).

Data set [1] concerns BACE-1. The arrangement: method as in Wu et al., 2016. Particulars: ref Wu et al., 2016; cited from earlier work.
Data set [2] relates to SH-SY5Y cells. More on the design: method as in Lee et al., 2019. As to conditions: ref Lee et al., 2019; cited from earlier work.
Data set [3] concerns BACE-1. The arrangement: method as in Lee et al., 2019. As to conditions: ref Lee et al., 2019; cited from earlier work.
Data set [4] can be described thus: Peptide quantification in mouse organs by mass spectrometry. The data set is classed as in vivo. Particulars: mice, 4 mg/kg i.v. The procedure:
(§1) A single dose of the peptide diluted in sterile PBS (pH 7.4) was injected intravenously in the bolus into the caudal vein of mice (n = 3) at a concentration of 4 mg/kg (0.2 mL). A group of animals (n = 3) received the sterile saline solution for the plasma and organ control, without the peptide (named ‘basal’). Blood was taken after 0, 5, and 30 min and 2, 6, and 24 h after injection. At these times, blood was collected via the retro-orbital route using a Pasteur pipette and dispensed into plastic tubes containing EDTA. The final blood volume was subjected to centrifugation at 1,500 rpm for 10 min at room temperature to obtain plasma, which was stored in a −80°C freezer until the analysis.
Moreover, organs were obtained at the same times, after a lethal injection of anesthetics (ketamine 300 mg/kg and xylazine 30 mg/kg). The organs collected included the brain, pancreas, spleen, kidneys, lungs, and liver. The organs were washed with the saline solution to remove excess blood, frozen in liquid nitrogen, and kept at −80°C until use. For the experiments, organs were submerged in 1 mL of 50 mM PBS with pH 7.5 containing peptidases inhibitors (aprotinin, bestatin, E-64, leupeptin, and pepstatin A, a protease inhibitor cocktail, Sigma-Aldrich) and lysed in a tissue and cell disruptor (ULTRA-TURRAX IKA, Staufen, Germany). The lysate was centrifuged for 2 min at 13,200 rpm at 4°C, and the supernatant resulting from centrifugation was stored in a −80°C freezer until the analysis.
(§2) Both plasma and organs (150 μL) were incubated with 100 mM DL-dithiothreitol at room temperature for 30 min; after that, they were incubated to 300 mM iodoacetamide at room temperature for another 30 min in the dark. Subsequently, 150 μL of 0.1% formic acid solution and 400 μL of Milli-Q water were added and agitated for 5 min. The samples were then submitted to solid-phase extraction using a C18 cartridge (Supelco) with elution in a 60:40 acetonitrile:water solution (v/v). The eluate was inserted by mass spectrometry for analysis and quantification.
(§3) The determination and quantification of the peptide in plasma and organs of mice were performed by liquid chromatography (UPLC system, Waters Co.) coupled to mass spectrometry ESI-Xevo TQ-S (Waters Co., United States). The samples were inserted in a C18 column (Luna, 5 μm, 150 × 4.6 mm, Phenomenex) and eluted by 70% methanol in water, containing 0.05% formic acid in a constant flow of 0.3 mL/min. The ion was monitored at the positive ionization mode, 150°C source temperature, 550°C desolvation temperature, 800 L/h desolvation gas flow, 2 kV for capillary, and […] cone voltage. Data were acquired and analyzed using MassLynx 4.
(§4) To define the relationship between the instrument response and the known concentration of the peptide, a calibration curve with six points of the peptide (0.1–20 μg/mL for plasma and 5–40 μg/mL for organs) was generated in a range defined according to the sensitivity of the method and the expected concentrations of the samples in animals (based on the amount of peptide injected).
(§5) The plasma concentration (Cp), in µg/L, was determined by mass spectrometric analysis, and then, area data were analyzed using the PKSolver add-in program for Microsoft Excel. Pharmacokinetics parameters as the natural logarithm of Cp (lnCp), Cp0, half-life, and clearance were calculated in a compartmental analysis of plasma data after the intravenous bolus input ([Zhang et al., 2010]). For organs, data are present as mean ± SD for each point.

The nature of data set [5]: in vivo. More on the design: species or system mice. As to conditions: mouse. The procedure: Authorization for pharmacokinetics analyses was obtained from the Ethics Committee of Instituto Butantan (CEUAIB 58872400322), where the experiments with animals were carried out. Healthy adult male Swiss mice weighing approximately 25 g were used. All animals were placed in microisolators for a 12-h light/dark cycle, 70% humidity, and a constant average temperature (22°C).
as §1, §2, §3, §4
Each analysis lot contained the following samples: a calibration curve consisting of a blank sample (peptide-free biological matrix), samples containing peptide standard, and plasma or organ samples. Calibration functions were calculated using the peak areas of the peptide. The peptide concentrations in the samples were calculated from the weighted linear regression equation (1/×2) obtained from the calibration curve (peptide concentration as the function of the area). This regression model (1/×2) was used because of the amplitude of the calibration curve.
as §5

The target of data set [6] is T1, recombinant BACE-1 (Homo sapiens, UniProt P56817).
T1 construct: purchased Sigma-Aldrich MAK237
Briefly: Enzymatic kinetics on recombinant BACE-1 (Lineweaver-Burk). Format: biochemical. Particulars: 10 μM peptide, substrate 0–32 µM. The procedure:
The peptide was commercially obtained (manufactured by Biotik, commercialized by FastBio, Brazil) and synthetized by the solid phase with >95% purity. The peptide was tested using an enzymatic kinetics model, in which 10 μM of peptide (diluted in 0.9% saline solution) was incubated with recombinant BACE-1 and reaction buffer for 15 min at room temperature (MAK237, Sigma-Aldrich, St Louis, MO, United States). After that, H-Arg-Glu (EDANS)[…](DABCYL)Arg-OH quencher substrate (0–32 µM) was added to the reaction mixture. Readings were taken using a fluorimeter (Glomax, Promega, Madison, WI, United States) every 5 min at 37° in a λex = 335 and λem = 510. Experiments were conducted in triplicate in two independent sets, and the mean of fluorescence was obtained for further calculations. The velocity of the reaction was calculated as ∆ fluorescence values at ∆ time for each substrate concentration. 1/V and 1/S values were obtained and plotted in a graph (Lineweaver–Burk plot), and kinetic parameters (slope, Vmax, Km, and Ki) were calculated as the mean ± SD using GraphPad Prism v5.

Data set [7] can be described thus: Histology of organs and toxicity after peptide injection. The data set is classed as in vivo, mice. The source says:
Organs were removed and immediately fixed in Bouin’s solution for processing by dehydration ethanol sessions and historesin embedding to obtain 3 µm thick transversal slides. Sections were stained with hematoxylin–eosin and examined using a light microscope for a qualitative analysis.

Entries after “also recorded” stand apart in the source; their conditions may differ. No end group written: not given here. Where only a bound is given, the exact number is not on record here.

T1 sequence (P56817 46-501): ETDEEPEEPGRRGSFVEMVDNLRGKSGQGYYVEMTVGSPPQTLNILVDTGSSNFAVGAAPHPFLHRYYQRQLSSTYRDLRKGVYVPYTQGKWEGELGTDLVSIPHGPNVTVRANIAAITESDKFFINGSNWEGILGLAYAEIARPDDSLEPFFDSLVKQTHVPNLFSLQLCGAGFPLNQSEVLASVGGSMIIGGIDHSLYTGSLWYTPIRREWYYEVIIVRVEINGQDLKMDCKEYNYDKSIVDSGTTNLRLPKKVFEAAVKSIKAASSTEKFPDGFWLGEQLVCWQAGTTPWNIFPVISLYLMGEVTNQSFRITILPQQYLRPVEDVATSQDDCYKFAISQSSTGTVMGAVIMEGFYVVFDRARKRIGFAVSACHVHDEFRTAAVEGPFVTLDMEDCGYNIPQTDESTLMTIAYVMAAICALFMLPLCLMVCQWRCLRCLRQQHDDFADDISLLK

The term IC50 denotes the concentration that gives 50% inhibition. Regarding pyrazinecarboxamide, the IC50 in data set [1] was less than 1 nM.
For the substance Leu–Asn, in data set [2], the “Aβ production in SH-SY5Y cells” value was “reducing the Aβ production”. For the same substance, in data set [3], the “BACE-1 inhibitory activity among fragments derived from the original peptide” value was “most potent activity”.
One may read the AUC(0-inf) as the area under the concentration-time curve extrapolated to infinity. Read a high AUC(0-inf) as high exposure. In general, AUC(0-t) refers to exposure summed from dosing to a finite time, without extrapolation to infinity. A lower AUC(0-t) goes with less exposure. A word on the MRT: it is a mean duration of stay, worked out from the concentration-time curve. One may read the half-life as the time needed for the level to fall by half in the phase considered. In general, Ki refers to the dissociation constant of the complex between target and ligand, obtained from inhibition or displacement. With SLAFVDVLN [peptide], in data set [4], the “Peptide concentration in the kidneys over time” value was “increased 30 min after the injection, slightly decreased after 2 h, but increased after 6 h”; the “Time of peak of the peptide in the brain” value is 2 h; the “Time of peak of the peptide in the liver” value came out at 30 min; the “Time of peak of the peptide in the spleen” value was found to be 30 min. In addition, in data set [4], the “Time the peptide could be found in the brain” value is on record as “up to 6 h”. For the same substance, in data set [4] (5 min after injection), the “Peptide concentration in the lungs” value is reported as “high concentration”. In addition, the “Peptide in the pancreas” value in data set [4] (4 mg/kg) was “not possible to identify; also recorded: could not be found”. In data set [5] (male, Swiss, iv, 4 mg/kg), this substance yielded an AUC(0-inf) of 2600 ng·h/mL, an AUC(0-t) of 2600 ng·h/mL, a C0 of 2600 ng/mL and an MRT of 1 h. In data set [5] (male, Swiss, iv, 4 mg/kg, t1/2), the half-life is approximately 60 min. In data set [5], this substance yielded a Vss of 0.0015 and a clearance of 0.0015. Besides, the “Enzymatic cleavage of the peptide in vivo (intact mass, fragments by mass spectrometry)” value in data set [5] (iv) is on record as “no enzymatic cleavage”. In data set [5] (iv, 4 mg/kg), the AUMC was 2,595.96 μg/L*h^2, the CL is on record as 0.00154 (mg/kg)/(μg/L)/h, the V is given as 0.00154 (mg/kg)/(μg/L) and the Vss is 0.0015 mg/kg/(μg/L). Also, in data set [6], the Ki was found to be 94 nM. The “Clinical signals of toxicity” value in data set [7] (mice, single dose) is “no clinical signals of toxicity were observed”. Besides, in data set [7] (spleen, liver, pancreas, lungs, kidneys, 5 and 30 min, 2 and 6 h after single 4 mg/kg i.v. dose, 4 mg/kg), the “Histological alterations (cell/tissue morphology, inflammatory infiltrate)” value is on record as “no morphological alteration in any organ; also recorded: No alterations were detected”.
